Read-outs that look alike come from different tables or passages of the source.
Target: TrkA kinase (Homo sapiens, UniProt P04629)
Assay: TrkA kinase assay (mobility shift assay)
Format: biochemical
Settings: read-out: Trk A Kinase IC50
Method: Example 201 TrkA Kinase Assay
Mobility shift assay was used to determine the inhibitory activity of compounds against TrkA kinase. Assay procedures are as follows:
1× Kinase base buffer (50 mM HEPES, pH 7.5; 0.0015% Brij-35)
Stop buffer (100 mM HEPES, pH 7.5; 0.015% Brij-35; 0.2% Coating Reagent #3; 50 mM EDTA)
1) Dilute the compound to 50× of the final desired highest inhibitor concentration in reaction by 100% DMSO. Transfer 100 μl of this compound dilution to a well in a 96-well plate.
2) For all compounds, transfer the compound in tubes to one well on 96-well storage plate and serially dilute the compound by transferring 30 μl to 60 μl of 100% DMSO in the next well and so forth for a total of 10 concentrations.
3) Add 100 μl of 100% DMSO to two empty wells for no compound control and no enzyme control in the same 96-well plate. Mark the plate as source plate.
4) Prepare intermediate plate
Transfer 10 μl of compound from source plate to a new 96-well plate as the intermediate plate
Add 90 µl of 1× kinase buffer to each well of the intermediate plate.
Mix the compounds in intermediate plate for 10 min on shaker.
1) Transfer 5 μl of each well from the 96-well intermediate plate to a 384-well plate in duplicates. For example, A1 of the 96-well plate is transferred to A1 and A2 of the 384-well plate. A2 of the 96-well plate is transferred to A3 and A4 of the 384-well plate, and so on.
1) Prepare 2.5× enzyme solution
Add kinase in 1× kinase base buffer.
2) Prepare 2.5× peptide solution Add FAM-labeled peptide and ATP in the 1× kinase base buffer.
3) Assay plate already contains 5 μl of compound in 10% DMSO.
4) Transfer 2.5× enzyme solution to the assay plate
Add 10 μl of 2.5× enzyme solution to each well of the 384-well assay plate.
5) Incubate at room temperature for 10 min.
6) Transfer 2.5× peptide solution to the assay plate
Add 10 μl of 2.5× peptide solution to each well of the 384-well assay plate.
Kinase reaction conditions are shown as Table 11:
7) Kinase reaction and stop
Incubate at 28° C. for specified period of time.
Add 25 μl of stop buffer to stop reaction.
1) Copy conversion data from Caliper program.
2) Convert conversion values to inhibition values.
Percent inhibition=(max-conversion)/(max-min)*100.
“max” stands for DMSO control; “min” stands for low control.
3) Fit the data in XLFit excel add-in version 5.4.0.8 to obtain IC50 values.
Equation used is: Y=Bottom+(Top-Bottom)/(1+(IC50/X)^HillSlope)

Sequence of TrkA kinase (P04629 33-796): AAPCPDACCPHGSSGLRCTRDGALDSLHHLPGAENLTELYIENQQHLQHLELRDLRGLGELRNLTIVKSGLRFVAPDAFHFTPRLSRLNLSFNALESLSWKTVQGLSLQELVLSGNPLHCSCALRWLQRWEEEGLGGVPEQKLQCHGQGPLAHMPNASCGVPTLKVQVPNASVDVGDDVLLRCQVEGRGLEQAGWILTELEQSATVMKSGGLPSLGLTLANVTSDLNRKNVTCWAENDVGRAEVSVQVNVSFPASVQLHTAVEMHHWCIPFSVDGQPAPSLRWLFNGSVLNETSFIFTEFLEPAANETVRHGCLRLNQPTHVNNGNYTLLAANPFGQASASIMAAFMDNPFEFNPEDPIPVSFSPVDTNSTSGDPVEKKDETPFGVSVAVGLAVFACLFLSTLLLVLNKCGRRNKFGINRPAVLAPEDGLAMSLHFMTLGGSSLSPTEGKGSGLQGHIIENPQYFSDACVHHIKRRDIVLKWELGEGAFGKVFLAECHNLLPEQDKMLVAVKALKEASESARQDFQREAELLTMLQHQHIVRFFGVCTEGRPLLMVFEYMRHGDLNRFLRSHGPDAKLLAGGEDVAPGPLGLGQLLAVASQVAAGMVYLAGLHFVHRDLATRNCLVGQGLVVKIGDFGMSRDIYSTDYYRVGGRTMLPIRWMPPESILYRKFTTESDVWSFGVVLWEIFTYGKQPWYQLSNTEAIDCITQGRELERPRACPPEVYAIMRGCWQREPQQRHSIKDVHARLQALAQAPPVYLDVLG

| IC50 (class symbols) [nM] | IC50 (numeric values) [nM] | Structure (SMILES) |
| --- | --- | --- |
| ≤ 10 |  | COc1cc2oc(-c3cnn4ccc(N5CCC[C@@H]5c5cc(F)ccc5F)nc34)nc2cc1C#N [Compound 174, (R)-2-(5-(2-(2,5-difluorophenyl)pyrrolidin-1-yl)pyrazolo[1,5-a]pyrimidin-3-yl)-6-methoxybenzo[d]oxazole-5-carbonitrile] |
| > 50 |  | COc1cc2[nH]c(-c3cnn4ccc(N5CCC[C@@H]5c5ccc(F)cc5)nc34)nc2cc1C#N [Compound 198, (R)-2-(5-(2-(4-fluorophenyl)pyrrolidin-1-yl)pyrazolo[1,5-a]pyrimidin-3-yl)-6-methoxy-1H-benzo[d]imidazole-5-carbonitrile] |
| ≤ 10 |  | CN1CCN(c2cc3[nH]c(-c4cnn5ccc(N6CCC[C@@H]6c6cc(F)ccc6F)nc45)nc3cc2C#N)CC1 [Compound 163, (R)-2-(5-(2-(2,5-difluorophenyl)pyrrolidin-1-yl)pyrazolo[1,5-a]pyrimidin-3-yl)-6-(4-methylpiperazin-1-yl)-1H-benzo[d]imidazole-5-carbonitrile] |
| 10 to 50 |  | COc1cc2[nH]c(-c3cnn4ccc(N5CCC[C@H]5c5cc(F)ccc5F)nc34)nc2cc1C#N [Compound 197, (S)-2-(5-(2-(2,5-difluorophenyl)pyrrolidin-1-yl)pyrazolo[1,5-a]pyrimidin-3-yl)-6-methoxy-1H-benzo[d]imidazole-5-carbonitrile] |
| ≤ 10 |  | COc1cc2nc(-c3c(N)nn4ccc(N5CCC[C@@H]5c5cc(F)ccc5F)nc34)[nH]c2cc1OC [Compound 193, (R)-5-(2-(2,5-difluorophenyl)pyrrolidin-1-yl)-3-(5,6-dimethoxy-1H-benzo[d]imidazol-2-yl)pyrazolo[1,5-a]pyrimidin-2-amine] |

The remaining lines, values behind:

| Structure (SMILES) | IC50 (class symbols) [nM] | IC50 (numeric values) [nM] |
| --- | --- | --- |
| N#CCOc1cc2nc(-c3cnn4ccc(N5CCC[C@@H]5c5cc(F)ccc5F)nc34)[nH]c2cc1OCC#N [Compound 119, (R)-2,2′-((2-(5-(2-(2,5-difluorophenyl)pyrrolidin-1-yl)pyrazolo[1,5-a]pyrimidin-3-yl)-1H-benzo[d]imidazole-5,6-diyl)bis(oxy))diacetonitrile] | ≤ 10 |  |
| Fc1ccc(F)c([C@H]2CCCN2c2ccn3ncc(-c4nc5ccc(OC(F)F)cc5[nH]4)c3n2)c1 [Compound 81, (R)-3-(6-(difluoromethoxy)-1H-benzo[d]imidazol-2-yl)-5-(2-(2,5-difluorophenyl)pyrrolidin-1-yl)pyrazolo[1,5-a]pyrimidine] |  | 2.18 |
| Fc1ccc(F)c([C@H]2CCCN2c2ccn3ncc(-c4nc5ncc(Br)nc5[nH]4)c3n2)c1 [Compound 129, (R)-6-bromo-2-(5-(2-(2,5-difluorophenyl)pyrrolidin-1-yl)pyrazolo[1,5-a]pyrimidin-3-yl)-1H-imidazo[4,5-b]pyrazine] | ≤ 10 |  |
| N#Cc1ccc2[nH]c(-c3cnn4ccc(N5CCC[C@@H]5c5cc(F)ccc5F)nc34)cc2c1 [Compound 133, (R)-2-(5-(2-(2,5-difluorophenyl)pyrrolidin-1-yl)pyrazolo[1,5-a]pyrimidin-3-yl)-1H-indole-5-carbonitrile] | 10 to 50 |  |
| C#CC(O)c1nnc(-c2cnn3ccc(N4CCC[C@@H]4c4cc(F)ccc4F)nc23)[nH]1 (stereo partly drawn) [Compound 48, 1-(5-(5-((R)-2-(2,5-difluorophenyl)pyrrolidin-1-yl)pyrazolo[1,5-a]pyrimidin-3-yl)-4H-1,2,4-triazol-3-yl)prop-2-yn-1-ol] | ≤ 10 |  |
| CN1CCC(c2nnc(-c3cnn4ccc(N5CCC[C@@H]5c5cc(F)ccc5F)nc34)[nH]2)CC1 [Compound 38, (R)-5-(2-(2,5-difluorophenyl)pyrrolidin-1-yl)-3-(5-(1-methylpiperidin-4-yl)-4H-1,2,4-triazol-3-yl)pyrazolo[1,5-a]pyrimidine] |  | 11.7 |
| Fc1ccc(F)c([C@H]2CCCN2c2ccn3ncc(-c4nc5cc(Cl)c(Cl)cc5[nH]4)c3n2)c1 [Compound 105, (R)-3-(5,6-dichloro-1H-benzo[d]imidazol-2-yl)-5-(2-(2,5-difluorophenyl)pyrrolidin-1-yl)pyrazolo[1,5-a]pyrimidine] |  | 32.9 |

— patent US20210395256A1, “TYROSINE KINASE INHIBITORS, COMPOSITIONS AND METHODS THERE OF” (Betta Pharmaceuticals Co., Ltd., priority 2018, published 2021)
